# Measurements as given in article PMC8703317, “2-(Piperidin-4-yl)acetamides as Potent Inhibitors of Soluble Epoxide Hydrolase with Anti-Inflammatory Activity” (Pharmaceuticals, 2021).
# How the values were obtained:
# human sEH = target: T1, human sEH (Homo sapiens, UniProt P34913); experiment: fluorescent-based sEH inhibition assay, recombinant human sEH; assay type: biochemical; details: baculovirus expressed recombinant human sEH, average of three replicates
# T1 construct: made in house; host or cells: baculovirus expression system (insect cells implied)
# T1 sequence (P34913 1-555): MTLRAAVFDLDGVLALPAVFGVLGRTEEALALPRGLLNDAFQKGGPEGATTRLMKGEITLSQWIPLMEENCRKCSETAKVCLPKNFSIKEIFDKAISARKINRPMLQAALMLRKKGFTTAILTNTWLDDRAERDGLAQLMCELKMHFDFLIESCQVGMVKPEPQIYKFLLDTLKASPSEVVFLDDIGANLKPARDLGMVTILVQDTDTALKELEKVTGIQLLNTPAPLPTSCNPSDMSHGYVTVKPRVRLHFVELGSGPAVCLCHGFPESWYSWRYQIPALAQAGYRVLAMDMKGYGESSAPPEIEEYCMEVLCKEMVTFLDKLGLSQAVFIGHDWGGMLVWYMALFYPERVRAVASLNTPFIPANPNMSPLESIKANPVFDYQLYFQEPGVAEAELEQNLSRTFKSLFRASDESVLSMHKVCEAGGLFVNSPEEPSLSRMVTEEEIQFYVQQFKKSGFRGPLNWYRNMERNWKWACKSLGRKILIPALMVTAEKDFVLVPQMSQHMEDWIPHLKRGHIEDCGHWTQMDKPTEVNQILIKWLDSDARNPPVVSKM
# Protocol: (§1) The potency of all the new compounds as inhibitors of the human and murine sEH was tested using a previously reported sensitive fluorescent-based assay using baculovirus expressed recombinant human and mouse sEH [28].
# [1] = microsomal stability, mouse microsomes; assay type: in vitro ADME; details: pooled murine microsomes, pH 7.4; 60 min incubation with mouse microsomes, NADPH, 37 °C
# Protocol: (§2) The human and murine pooled microsomes employed were purchased from Tebu-Xenotech (Barcelona, Spain). The compound was incubated at 37 °C with the microsomes in a 50 mM phosphate buffer (pH = 7.4) containing 3 mM MgCl2, 1 mM NADP, 10 mM glucose-6-phosphate and 1 U/mL glucose-6-phosphate-dehydrogenase. Samples (75 µL) were taken from each well at 0, 10, 20, 40 and 60 min and transferred to a plate containing 4 °C 75 µL acetonitrile and 30 µL of 0.5% formic acid in water were added for improving the chromatographic conditions. The plate was centrifuged (46000 g, 30 min) and supernatants were taken and analyzed in a UPLC-MS/MS (Xevo-TQD, Waters) by employing a BEH C18 column and an isocratic gradient of 0.1% formic acid in water: 0.1% formic acid acetonitrile (60:40). The metabolic stability of the compounds was calculated from the logarithm of the remaining compounds at each of the time points studied.
# [2] = microsomal stability, human microsomes; assay type: in vitro ADME; details: pooled human microsomes, pH 7.4; 60 min incubation with human microsomes, NADPH, 37 °C
# Protocol: as §2
# murine sEH = target: T2, murine sEH (Mus musculus, UniProt P34914); experiment: fluorescent-based sEH inhibition assay, recombinant mouse sEH; assay type: biochemical; details: baculovirus expressed recombinant mouse sEH, average of three replicates
# T2 construct: made in house; host or cells: baculovirus expression system (insect cells implied)
# T2 sequence (P34914 1-554): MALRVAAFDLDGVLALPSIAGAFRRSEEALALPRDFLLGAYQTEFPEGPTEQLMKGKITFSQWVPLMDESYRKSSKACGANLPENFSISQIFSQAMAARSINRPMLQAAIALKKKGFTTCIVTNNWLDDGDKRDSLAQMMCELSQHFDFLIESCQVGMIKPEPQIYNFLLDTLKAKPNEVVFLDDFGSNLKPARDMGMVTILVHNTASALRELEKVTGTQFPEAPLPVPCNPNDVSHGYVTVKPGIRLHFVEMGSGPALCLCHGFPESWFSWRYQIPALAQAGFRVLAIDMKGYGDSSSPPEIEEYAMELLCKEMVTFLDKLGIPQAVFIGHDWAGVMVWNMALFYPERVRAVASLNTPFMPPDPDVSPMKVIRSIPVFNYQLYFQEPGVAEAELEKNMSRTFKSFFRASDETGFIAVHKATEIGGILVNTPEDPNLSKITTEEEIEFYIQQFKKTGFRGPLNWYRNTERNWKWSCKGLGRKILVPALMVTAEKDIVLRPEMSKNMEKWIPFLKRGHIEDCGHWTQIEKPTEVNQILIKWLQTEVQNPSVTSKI
# Protocol: as §1
# [3] = parameters: method as in PMID 33945278; details: cited from earlier work; for Microsomal Stability Mouse % Remaining at 1 h: 60 min incubation with mouse microsomes, NADPH, 37 °C
# [4] = parameters: method as in PMID 33945278; details: 60 min incubation with human microsomes, NADPH, 37 °C; cited from earlier work
# [5] = test system: microglial BV2 cells activated with LPS; experiment: nitric oxide generation (nitrite, Griess) in LPS-activated BV2 microglial cells; assay type: cell-based; details: compound at 100 µM, LPS, 24 h, percentage of LPS value
# Protocol: Inflammatory changes were determined by the measure of nitric oxide generation, as the endpoint of iNOS activation, in microglial BV2 cells. BV2 cells (HyperCLDB, Banca Biologica e Cell Factory, ICLC ATL 03001) were grown in RPMI 1640 medium, supplemented with L-glutamine 2 mM, gentamycin 50 µM and 10% FBS. For experiments, cells were seeded in 96-well plates at 2 × 10^5 cells/mL, 100 µL/well. […] After 1 h of incubation, the cells were treated with the pro-inflammatory chemical LPS (0.1 μg/mL or 1 μg/mL; strain E. coli […], Sigma-Aldrich, L-2654, batch #120M4028) and further incubated for 24 h. TPPU at 100 µM was also assayed as a reference anti-inflammatory compound. DMSO 0.1% was used as vehicle. Cells were maintained at 37 °C in a humidified incubator with 5% CO2 throughout the procedures. Nitric oxide released to the culture medium was measured by the colorimetric Griess reaction that detects nitrite (NO2^–), a stable reaction product of nitric oxide and molecular oxygen. Briefly, 50 µL of conditioned medium were incubated with 50 µL of Griess reagent for 10 min at room temperature. Optical density was measured at 540 nm. Nitrite concentration was determined from a sodium nitrite standard curve. Results were normalized by cell protein content in the well and expressed as a percentage of the average maximal values given by the pro-inflammatory agent (LPS 1 µg/mL). Each treatment was performed in 3–5 wells and the whole experiment was repeated 3–4 times in cultures of different cell passage. Data were analyzed by ANOVA followed by Tukey’s multiple comparisons test.
IC50 (human sEH) [nM],remaining at 1 h [1] [%],remaining at 1 h [2] [%],IC50 (murine sEH) [nM],melting point [°C],Compound,Microsomal Stability Mouse % Remaining at 1 h [3] [%],Microsomal Stability Human % Remaining at 1 h [4] [%],"nitric oxide release induced by LPS, reduced to [5]",microsomal stability (% remaining at 1 h) mouse ([3]; Figure 2 legend) [%]
34.5,0,0.3,0.4,,"CC(=O)N1CCC(CC(=O)NC23CC4CC(C)(CC(C2)c2ccccc24)C3)CC1 [6a, 2-(1-Acetylpiperidin-4-yl)-N-(9-methyl-5,6,8,9,10,11-hexahydro-7H-5,9:7,11-dimethanobenzo[9]annulen-7-yl)acetamide]",,,,
30.2,0,0,0.4,,"CC(C)S(=O)(=O)N1CCC(CC(=O)NC23CC4CC(C)(CC(C2)c2ccccc24)C3)CC1 [6b, 2-[1-(Isopropylsulfonyl)piperidin-4-yl]-N-(9-methyl-5,6,8,9,10,11-hexahydro-7H-5,9:7,11-dimethanobenzo[9]annulen-7-yl)acetamide]",,,,
1.6,5.1,5.5,0.4,192 to 193,"CC(C)S(=O)(=O)N1CCC(CC(=O)NC23CC4CC(F)(CC(C2)c2ccccc24)C3)CC1 [6c, N-(9-Fluoro-5,6,8,9,10,11-hexahydro-7H-5,9:7,11-dimethanobenzo[9]annulen-7-yl)-2-(1-(isopropylsulfonyl)piperidin-4-yl)acetamide]",,,,
1,1.4,7,0.4,163 to 164,"CC(C)S(=O)(=O)N1CCC(CC(=O)NC23CC4CC(Cl)(CC(C2)c2ccccc24)C3)CC1 [6d, N-(9-Chloro-5,6,8,9,10,11-hexahydro-7H-5,9:7,11-dimethanobenzo[9]annulen-7-yl)-2-(1-(isopropylsulfonyl)piperidin-4-yl)acetamide]",,,,
2.8,0.2,0.6,0.5,136 to 137,"CC(C)S(=O)(=O)N1CCC(CC(=O)NC23CC4CC(C2)c2ccccc2C(C4)C3)CC1 [6e, N-(5,6,8,9,10,11-Hexahydro-7H-5,9:7,11-dimethanobenzo[9]annulen-7-yl)-2-(1-(isopropylsulfonyl)piperidin-4-yl)acetamide]",,,,
2.4,0.5,1.3,0.4,138 to 139,"[2H]C12CC3CC(NC(=O)CC4CCN(S(=O)(=O)C(C)C)CC4)(CC(C1)c1ccccc13)C2 [6f, N-(5,6,8,9,10,11-Hexahydro-7H-5,9:7,11-dimethanobenzo[9]annulen-7-yl-9-d)-2-(1-(isopropylsulfonyl)piperidin-4-yl)acetamide]",,,,
37.5,0.1,0.1,3.3,,"CC12CC3CC(NC(=O)CC4CCN(Cc5ccccc5)CC4)(CC(C1)c1ccccc13)C2 [6g, 2-(1-Benzylpiperidin-4-yl)-N-(9-methyl-5,6,8,9,10,11-hexahydro-7H-5,9:7,11-dimethanobenzo[9]annulen-7-yl)acetamide]",,,,
21.4,0.1,0.3,12.9,164 to 165,"O=C(CC1CCN(Cc2ccccc2)CC1)NC12CC3CC(F)(CC(C1)c1ccccc13)C2 [6h, 2-(1-Benzylpiperidin-4-yl)-N-(9-fluoro-5,6,8,9,10,11-hexahydro-7H-5,9:7,11-dimethanobenzo[9]annulen-7-yl)acetamide]",,,,
0.6,0.1,0.1,0.7,229 to 230,"CC(=O)c1ccc(N2CCC(CC(=O)NC34CC5CC(F)(CC(C3)c3ccccc35)C4)CC2)cc1 [10a, 2-(1-(4-Acetylphenyl)piperidin-4-yl)-N-(9-fluoro-5,6,8,9,10,11-hexahydro-7H-5,9:7,11-dimethanobenzo[9]annulen-7-yl)acetamide]",,,,
3.4,0.1,0,0.4,180 to 181,"N#Cc1ccc(N2CCC(CC(=O)NC34CC5CC(F)(CC(C3)c3ccccc35)C4)CC2)cc1 [10b, 2-(1-(4-Cyanophenyl)piperidin-4-yl)-N-(9-fluoro-5,6,8,9,10,11-hexahydro-7H-5,9:7,11-dimethanobenzo[9]annulen-7-yl)acetamide]",,,,
0.4,2,11,0.2,190 to 191,"O=C(CC1CCN(c2ccc(C(=O)O)cc2C2CC2)CC1)NC12CC3CC(F)(CC(C1)c1ccccc13)C2 [10d, 3-Cyclopropyl-4-(4-(2-((9-fluoro-5,6,8,9,10,11-hexahydro-7H-5,9:7,11-dimethanobenzo[9]annulen-7-yl)amino)-2-oxoethyl)piperidin-1-yl)benzoic Acid]",,,,
1.7,6,52,0.7,,O=C(CC1CCN(c2ccc(C(=O)O)cc2)CC1)NC12CC3CC(Cl)(CC(C1)c1ccccc13)C2 [10e],,,,
,,,,,CC12CC3CC(NC(=O)N[C@H]4CC[C@H](Oc5ccc(C(=O)O)cc5)CC4)(CC(C1)c1ccccc13)C2 [11a],10,70,,
,,,,,O=C(NC12CC3CC(F)(CC(C1)c1ccccc13)C2)N[C@H]1CC[C@H](Oc2ccc(C(=O)O)cc2)CC1 [11b],36,77,,
,,,,,O=C(NC12CC3CC(Cl)(CC(C1)c1ccccc13)C2)N[C@H]1CC[C@H](Oc2ccc(C(=O)O)cc2)CC1 [11c],60,89,,
,,,,,"CCC(=O)N1CCC(NC(=O)Nc2ccc(OC(F)(F)F)cc2)CC1 [TPPU, reference compound]",,,approximately 50%,
,1,1,,,"CC(=O)N1CCC(NC(=O)NC23CC4CC(C)(CC(C2)c2ccccc24)C3)CC1 [compound 1, reference compound]",,,,0.5
